{"source": "patent US20230212246A1", "about": "“TGF-B AS A THERAPEUTIC TARGET FOR INTRACRANIAL ANEURYSM” (THE BOARD OF REGENTS OF THE UNIVERSITY OF TEXAS SYSTEM, priority 2022, published 2023)", "key": {"[1]": {"system": "p-Smad2", "assay": "Activin treatment time course of p-Smad2 in HBMEC", "assay_type": "cell-based, human", "settings": "HBMEC cells, FIG. 6a", "description": "(§1) Cells were lysed in 1% Triton lysis buffer and sonicated briefly before centrifuged at 18506 g for 30 min at 4° C. Total cell lysates were added by 2X SDS sample buffer and then subjected to discontinuous SDS-PAGE analysis. Proteins were transferred to nitro-cellulose membranes using a Bio-Rad (Hercules, Calif.) mini transfer apparatus followed by blocking with 5% nonfat milk. Primary antibodies and secondary antibodies were used usually at 1:1000 and 1:10000 dilutions respectively before using an Odyssey system to detect the fluorescence signal.\n(§2) FIG. 3 is a drawing depicting a representative model of the TGFβ pathway. […] As depicted in FIG. 3, it is possible to monitor the phosphorylation level of Smad2 or Samd3 as a reporter for TGFβ signaling activity.\nTo evaluate the specificity of the requirement for THSD1 for TGFβ signaling in endothelial cells we also tested Activin treatment. […] FIG. 7 is a schematic illustrating that THSD1 has a thrombospondin domain (TSP1) that interacts with mature TGFβ ligand."}, "[2]": {"system": "p-Smad2", "assay": "TGFβ treatment time course of p-Smad2 in HBMEC", "assay_type": "cell-based, human", "settings": "FIG. 5a", "description": "as §1, §2\n(§3) To further investigate a potential role for the TGFβ Signaling pathway in the pathology of aneurysms, specifically IA, we also tested TGFβ treatment in different endothelial cells including HBMEC and HUVEC. HBMEC is a primary brain endothelial cells and HUVEC is primary umbilical vein endothelial cells. […] THSD1 knockdown can block TGFβ signaling."}, "[3]": {"system": "p-Smad2", "assay": "TGFβ1 time course of p-Smad2 (Western blot) in HEK293T cells", "assay_type": "cell-based", "settings": "HEK293T cells treated with TGFβ1 at different time points, FIG. 4a", "description": "HEK293T cells were maintained in DMEM medium (Corning, 10-013-CV) containing 10% fetal bovine serum (Invitrogen, 10082147), 100 IU penicillin, and 100 μg/ml streptomycin. Transfections of small interfering RNAs and plasmid DNA were performed using lipofectamine 2000 (Life Technologies, 11668027) according to the manufacturer's instructions. Alternatively, for cells such as endothelial cells that are hard to transfect, we will utilize lentiviral system to generate stable cell lines.\nas §1\nFIG. 3 is a drawing depicting a representative model of the TGFβ pathway. […] As depicted in FIG. 3, it is possible to monitor the phosphorylation level of Smad2 or Samd3 as a reporter for TGFβ signaling activity. […]"}, "[4]": {"system": "p-Smad2", "assay": "TGFβ treatment time course of p-Smad2 in HUVEC", "assay_type": "cell-based, human", "settings": "HUVEC (cell line not restated), FIG. 5c", "description": "as §1, §2, §3"}}, "data": [{"substance": "Activin", "values": [{"measurement": "time at which p-smad2 reaches the highest level", "setting": "[1]", "value": "around 40 mins"}]}, {"substance": "TGFβ1: TGFβ ligand; polypeptide used to treat cells and induce Smad2 phosphorylation", "values": [{"measurement": "time at which p-Smad2 reaches the maximum level", "setting": "[2]", "value": "around 40 mins"}, {"measurement": "time at which p-Smad2 reaches plateau", "setting": "[3]", "value": 60, "unit": "min"}, {"measurement": "time at which p-smad2 reaches the highest level", "setting": "[4]", "value": "around 40 mins"}]}]}
